Source: paper PMC10810651, “Discovery of novel and potent CDK8 inhibitors for the treatment of acute myeloid leukaemia” (Journal of Enzyme Inhibition and Medicinal Chemistry, 2024)
Read-outs that look alike come from different tables or passages of the source.

Tests used:
SW480 = assay: Antiproliferative CCK-8 assay, SW480; format: cell-based; conditions: Homo sapiens; SW480, CCK-8 assay, means ± SD; read-out: GC50 (the source's name)
Text: (§1) Compounds12, 13 and 30 were selected for further cell activity assessments based on the enzymatic activity assessment results. molm-13 and MV4-11(acute myeloid lineage leukaemia cells), MGC-803 (gastric cancer cell), MDA-MB-231(breast cancer cell), A375 (melanoma cell), A549 (lung cancer cell), HCT-116, SW-480 and HT-29 (colorectal cancer cells) were selected to evaluate antitumor activity in vitro, GES-1 (gastric mucosal epithelial cell) was selected to evaluate toxicity in vitro.
(§2) CO2 atmosphere incubator for 24 h. Then, medium with compound at the concentrations of 100, 20, 4, 0.8, 0.016 μM was added into each well for another 48 h and incubated with CCK-8 (10 μL) for 2 h at 37 °C. The absorbance value at 450 nm was measured by the microplate reader (PerkinElmer Envision). […]

GES-1 = assay: In vitro toxicity CCK-8 assay, GES-1; format: cell-based; conditions: Homo sapiens, GES1, GES-1 gastric mucosal epithelial cell, read-out: GC50 (the source's name)
Text: as §1, §2

MV4-11 = assay: Antiproliferative CCK-8 assay, MV4-11; format: cell-based; conditions: Homo sapiens; MV4-11, CCK-8 assay, means ± SD; read-out: GC50 (the source's name)
Text: as §1, §2

HCT-116 = assay: Antiproliferative CCK-8 assay, HCT-116; format: cell-based; conditions: Homo sapiens; HCT-116, CCK-8 assay, means ± SD; read-out: GC50 (the source's name)
Text: as §1, §2

molm-13 = assay: Antiproliferative CCK-8 assay, molm-13; format: cell-based; conditions: Homo sapiens; molm-13, CCK-8 assay, means ± SD; read-out: GC50 (the source's name)
Text: as §1, §2

CDK8 = CDK8 (Homo sapiens, UniProt P49336); assay: CDK8 enzyme activity assay (ADP-Glo Kinase Assay); format: biochemical; conditions: means ± SD; for inhibition at 0.2 µM: CDK8, 200 nM, two experiments, read-out: Inhibition rate @ 200 nM (%); for IC50: three experiments
Sequence of CDK8 (P49336 whole entry): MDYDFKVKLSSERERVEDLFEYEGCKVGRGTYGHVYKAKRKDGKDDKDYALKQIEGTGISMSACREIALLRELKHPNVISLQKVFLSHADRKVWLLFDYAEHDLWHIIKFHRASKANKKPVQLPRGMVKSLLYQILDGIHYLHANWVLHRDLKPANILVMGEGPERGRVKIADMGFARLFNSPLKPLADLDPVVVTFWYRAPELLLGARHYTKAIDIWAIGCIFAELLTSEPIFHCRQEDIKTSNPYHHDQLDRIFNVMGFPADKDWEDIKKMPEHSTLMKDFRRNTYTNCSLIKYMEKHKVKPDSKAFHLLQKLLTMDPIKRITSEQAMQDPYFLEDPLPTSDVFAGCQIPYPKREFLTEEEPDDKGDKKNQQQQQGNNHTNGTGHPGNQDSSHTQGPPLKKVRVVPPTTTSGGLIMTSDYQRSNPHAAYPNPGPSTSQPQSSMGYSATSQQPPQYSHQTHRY
Sequence of CDK8 (P24863 whole entry partner): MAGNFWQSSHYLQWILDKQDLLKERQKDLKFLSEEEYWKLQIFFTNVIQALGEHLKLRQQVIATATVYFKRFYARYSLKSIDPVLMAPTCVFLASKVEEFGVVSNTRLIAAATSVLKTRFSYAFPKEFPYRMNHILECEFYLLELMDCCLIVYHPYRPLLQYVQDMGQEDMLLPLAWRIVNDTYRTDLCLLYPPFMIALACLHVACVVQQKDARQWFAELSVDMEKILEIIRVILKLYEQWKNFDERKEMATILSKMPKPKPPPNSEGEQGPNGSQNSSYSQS
Experimental: Some of them with high inhibition rates were further measured for their IC50 values. Compound SEL-120 34 A was selected as a positive control. [table] [table] page 14: CO2 atmosphere incubator for 24 h. Then, medium with compound at the concentrations of 100, 20, 4, 0.8, 0.016 μM was added into each well for another 48 h and incubated with CCK-8 (10 μL) for 2 h at 37 °C. The absorbance value at 450 nm was measured by the microplate reader (PerkinElmer Envision). 1.4 Kinase Assay The kinase inhibition was detected by ADP-Glo™ Kinase Assay (Promega) using a black 384-well plate. The active CDK8 kinase was diluted in mixture (5 ng enzyme, 0.5 μg substrate, 50 μM DTT, 1 μL reaction buffer and added ddH2O to 3 μL each well) and the final ATP concentrations of was 50 μM. After incubation at room temperature, ADP-Glo™ solution and kinase detection reagent was added. The data was collected by the microplate reader. 1.5 Cellular thermal shift assay HCT-116 cells were cultured in cell culture dishes and treated with 5 μM compound 12 for 4 h. HCT-116 cells were collected, washed by PBS and cell suspensions were divided into 12 PCR tubes equally. Then,11 tubes were heated at 37, […] After that, cells were broken by ultr asonic treatment and centrifuged at 12000 rpm for 20 min. The supernatant was analyzed by western blot. 1.6 Biotin-pulldown assay After co-treated with 2 μM biotinylated compound and compound 12 for 12 h, HCT-116 cells were lysed with NP-40 containing PMSF and centrifuged at 14000 r for 30 min at 4 °C. Then, 40 μL supernatant was used as the input by adding 10 μL 5×SDS loading buffer, and the remains were mixed with Streptavidin Agarose (Novex, Carlsbad, CA, USA). After 6 h incuba tion at 4 °C, the beads were washed three times using lysis buffer and resuspended in 2× SDS loading buffer. HEK -293T cells overexpressed flag -tagged CDK8 were treated using above method. The samples were analyzed by western blot.

A549 = assay: Antiproliferative CCK-8 assay, A549; format: cell-based; conditions: Homo sapiens; A549, CCK-8 assay, means ± SD; read-out: GC50 (the source's name)
Text: as §1, §2

HT-29 = assay: Antiproliferative CCK-8 assay, HT-29; format: cell-based; conditions: Homo sapiens; HT-29, CCK-8 assay, means ± SD; read-out: GC50 (the source's name)
Text: as §1, §2

MDA-MB-231 = assay: Antiproliferative CCK-8 assay, MDA-MB-231; format: cell-based; conditions: Homo sapiens; MDA-MB-231, CCK-8 assay, means ± SD; read-out: GC50 (the source's name)
Text: as §1, §2

A375 = assay: Antiproliferative CCK-8 assay, A375; format: cell-based; conditions: Homo sapiens, A-375; A375, CCK-8 assay, means ± SD; read-out: GC50 (the source's name)
Text: as §1, §2

MGC-803 = assay: Antiproliferative CCK-8 assay, MGC-803; format: cell-based; conditions: Homo sapiens; MGC-803, CCK-8 assay, means ± SD; read-out: GC50 (the source's name)
Text: as §1, §2

[1] = Caco-2 permeability determination; format: in vitro ADME; conditions: human; for Papp A→B: Caco-2, A→B; for Papp B→A: Caco-2, B→A
[2] = Caco-2, Caco-2, B→A, read-out: Recovery B→A
[3] = Caco-2, Caco-2, A→B, read-out: Recovery A→B

| SMILES | inhibition at 0.2 µM (CDK8) | IC50 (CDK8) | other results |
| --- | --- | --- | --- |
| NC(=O)c1cccc(-c2cnc3[nH]cc(-c4ccsc4)c3c2)c1 [Compound 13] | 70.4 ± 3.6% | 65.7 ± 3.1 nM | IC50 (SW480): 5450 ± 2820 nM; IC50 (GES-1): 24200 ± 3620 nM; IC50 (MV4-11): 360 ± 120 nM; IC50 (HCT-116): 2480 ± 990 nM; IC50 (molm-13): 160 ± 20 nM; IC50 (A549): 21800 ± 1660 nM; IC50 (HT-29): 9310 ± 1670 nM; IC50 (MDA-MB-231): 31500 ± 1270 nM; IC50 (A375): 950 ± 520 nM; IC50 (MGC-803): 9190 ± 2420 nM |
| NC(=O)c1cccc(-c2cnc3[nH]cc(-c4cccc(OC(F)(F)F)c4)c3c2)c1 [Compound 34] | 23.4 ± 3.3% | – | – |
| NC(=O)c1cccc(-c2cnc3[nH]cc(-c4cccc(F)c4)c3c2)c1 [Compound 29] | 23.1 ± 2.5% | – | – |
| NC(=O)c1cccc(-c2cnc3[nH]cc(-c4ccccc4O)c3c2)c1 [Compound 22] | 36.2 ± 2.7% | – | – |
| NC(=O)c1cccc(-c2cnc(N)c3ccccc23)c1 [Compound 6] | 75.8 ± 5.9% | 64.5 ± 3.8 nM | – |
| CCc1ccccc1-c1c[nH]c2ncc(-c3cccc(C(N)=O)c3)cc12 [Compound 24] | 24.6 ± 2.4% | – | – |
| NC(=O)c1cccc(-c2cnc3[nH]cc(-c4ccc(F)cc4)c3c2)c1 [Compound 35] | 55.8 ± 4.6% | – | – |
| COc1ccc(-c2c[nH]c3ncc(-c4cccc(C(N)=O)c4)cc23)cc1 [Compound 38] | 26.4 ± 1.6% | – | – |
| NC(=O)c1cccc(-c2ccc3sccc3c2)c1 [Compound 10] | 38.3 ± 2.2% | – | – |
| Cn1cc(-c2c[nH]c3ncc(-c4cccc(C(N)=O)c4)cc23)cn1 [Compound 16] | 29.5 ± 2.3% | – | – |
| NC(=O)c1cccc(-c2cnc(N)c(Cl)c2)c1 [Compound 4] | 45.6 ± 4.2% | – | – |
| NC(=O)c1cccc(-c2cnc3[nH]cc(-c4cccs4)c3c2)c1 [Compound 14] | 52.5 ± 2.8% | 186 ± 4.6 nM | – |
| NC(=O)c1cccc(-c2cnc3[nH]cc(-c4ccccc4OC(F)(F)F)c3c2)c1 [Compound 28] | 16.9 ± 2.2% | – | – |
| NC(=O)c1cccc(-c2cnc3[nH]cc(-c4cnn(C(F)F)c4)c3c2)c1 [Compound 18] | 32.5 ± 4.9% | – | – |
| CC(C)(C)NCC(O)COc1cccc2c1CC(O)C(O)C2 (centres unmarked) [Nadolol] | – | – | recovery [1, 2]: 111%; Papp A→B [1]: 0.2 ×10⁻⁶ cm/s; Papp B→A [1]: 0.5 ×10⁻⁶ cm/s |
| NC(=O)c1cccc(-c2cncc3ccccc23)c1 [Compound 5] | 55.7 ± 3.8% | 186 ± 4.5 nM | – |
| Cn1ccc2cc(-c3cccc(C(N)=O)c3)ccc21 [Compound 8] | 51.7 ± 5.4% | 255 ± 4.5 nM | – |
| NC(=O)c1cccc(-c2cnc3[nH]cc(-c4ccccc4C(F)(F)F)c3c2)c1 [Compound 27] | 15.9 ± 5.2% | – | – |
| C[C@H]1O[C@@H](O[C@H]2[C@@H](O)C[C@H](O[C@H]3[C@@H](O)C[C@H](O[C@H]4CC[C@@]5(C)[C@H](CC[C@@H]6[C@@H]5C[C@@H](O)[C@]5(C)[C@@H](C7=CC(=O)OC7)CC[C@]65O)C4)O[C@@H]3C)O[C@@H]2C)C[C@H](O)[C@@H]1O [Digoxin] | – | – | efflux ratio ([1]; Caco-2): 6.2; recovery [1, 3]: 92.5%; recovery [1, 2]: 99.2%; Papp A→B [1]: 0.9 ×10⁻⁶ cm/s; Papp B→A [1]: 5.6 ×10⁻⁶ cm/s |
| NC(=O)c1cccc(-c2ccc(N)nc2)c1 [Compound 3] | 50.8 ± 2.3% | 177 ± 7.2 nM | – |
| CCOC(C)n1cc(-c2c[nH]c3ncc(-c4cccc(C(N)=O)c4)cc23)cn1 (centres unmarked) [Compound 17] | 46.5 ± 1.8% | – | – |

| SMILES | inhibition at 0.2 µM (CDK8) | IC50 (CDK8) | other results |
| --- | --- | --- | --- |
| NC(=O)c1cccc(-c2cnc3[nH]cc(Cl)c3c2)c1 [Compound 11] | 51.8 ± 4.3% | – | – |
| NC(=O)c1cccc(-c2cnc3[nH]cc(-c4ccc(O)cc4)c3c2)c1 [Compound 37] | 28.3 ± 3.1% | – | – |
| NC(=O)c1cccc(-c2cnc3[nH]cc(-c4ccccc4)c3c2)c1 [Compound 19] | 57.4 ± 1.4% | 158 ± 4.3 nM | – |
| Cc1ccccc1-c1c[nH]c2ncc(-c3cccc(C(N)=O)c3)cc12 [Compound 23] | 51.6 ± 2.6% | 193 ± 6.6 nM | – |
| NC(=O)c1cccc(-c2cnc3[nH]cc(-c4cccc(C(F)(F)F)c4)c3c2)c1 [Compound 33] | 34.6 ± 4.1% | – | – |
| CC(C)NCC(O)COc1cccc2ccccc12 (centres unmarked) [Propranolol] | – | – | recovery [1, 3]: 99.9%; recovery [1, 2]: 107%; Papp A→B [1]: 40.2 ×10⁻⁶ cm/s; Papp B→A [1]: 34.1 ×10⁻⁶ cm/s |
| CC(C)c1ccccc1-c1c[nH]c2ncc(-c3cccc(C(N)=O)c3)cc12 [Compound 26] | 33.1 ± 4.2% | – | – |
| NC(=O)c1cccc(-c2cnc3[nH]cc(-c4ccc(OC(F)(F)F)cc4)c3c2)c1 [Compound 40] | 46.3 ± 1.9% | – | – |
| NC(=O)c1cccc(-c2cnc3[nH]ncc3c2)c1 [Compound 2] | 35.2 ± 2.8% | – | – |
| NC(=O)c1cccc(-c2ccc3[nH]ccc3c2)c1 [Compound 7] | 59.1 ± 2.1% | 212 ± 6.1 nM | – |
| NC(=O)c1cccc(-c2cnc3[nH]cc(-c4ccccc4F)c3c2)c1 [Compound 20] | 58.7 ± 3.3% | 161 ± 3.1 nM | – |
| NC(=O)c1cccc(-c2cnc3[nH]ccc3n2)c1 [Compound 1] | 63 ± 4.5% | 106 ± 4.6 nM | – |
| NC(=O)c1cccc(-c2cnc3[nH]cc(-c4cn[nH]c4)c3c2)c1 [Compound 15] | 49.1 ± 3.4% | – | – |
| NC(=O)c1cccc(-c2cnc3[nH]cc(-c4ccc(Cl)cc4)c3c2)c1 [Compound 36] | 61.6 ± 5.4% | 128 ± 3.8 nM | – |
| NC(=O)c1cccc(-c2cnc3[nH]cc(-c4ccccc4Cl)c3c2)c1 [Compound 21] | 23.6 ± 2.6% | – | – |
| COc1ccccc1-c1c[nH]c2ncc(-c3cccc(C(N)=O)c3)cc12 [Compound 25] | 62 ± 4.6% | 136 ± 5.3 nM | – |
| NC(=O)c1cccc(-c2cnc3[nH]cc(-c4cccc(O)c4)c3c2)c1 [Compound 31] | 30.5 ± 2.3% | – | – |
| NC(=O)c1cccc(-c2ccc3occc3c2)c1 [Compound 9] | 60.4 ± 4.3% | 190 ± 4.9 nM | – |
| NC(=O)c1cccc(-c2cnc3[nH]cc(-c4ccc(C(F)(F)F)cc4)c3c2)c1 [Compound 39] | 22.3 ± 3.7% | – | – |
| COc1cccc(-c2c[nH]c3ncc(-c4cccc(C(N)=O)c4)cc23)c1 [Compound 32] | 44 ± 3.8% | – | – |
